Key:
[1] = tested on: Cyfip^85.1/+ flies; test: competition for food assay (total number of social events) in Cyfip haploinsufficient flies; assay type: in vivo, Drosophila; conditions: Cyfip^85.1/+ flies; Diazepam 50 μM in food, 1 day
Experimental: Experiments were performed with socially experienced, 3-7 days-old male flies. Groups of eight males from the same genotype were anesthetized 24 h prior to the assay and placed in vials with food. On the day of the assay, the males were transferred without anesthesia to an empty vial and were deprived of food for 90 minutes, after which they were exposed to a food droplet and given 2 minutes to acclimate to this disturbance. The flies were then observed simultaneously for an additional 2 minutes, and the total number of social events was scored. Monitored social events were i.e. approaches, lunges, tussles, wing threat and the initiation of courtship. Of note, one interaction involving two or more flies was counted as one social event in total (Zwarts (2011), PNAS 108, 17070-17075. The behavioral assays were conducted in a behavioral chamber (25° C., 60-70% humidity) between 8 a.m. and 11 a.m. Statistics were calculated using a one-way fixed effect ANOVA model, and Kruskal Wallis test in combination with Dunn's multiple comparison test.
Example 8. GABA augmentation fully normalizes the behavioral abnormalities of Cyfip^85.1/+ flies. GABA levels were augmented in Cyfip^85.1/+ flies in three distinct ways: flies were fed either GABA, DL-2,4-diaminobutyric acid (DABA) which is a GABA-transaminase inhibitor and/or a GABA reuptake inhibitor or the anticonvulsant valproic acid (VPA) which induces GABA release (Chateauvieux (2010), Journal of biomedicine & biotechnology 2010; Coghlan (2012), Neurosci Biobehav Rev 36, 2044-2055; Reynolds (2007), Current medicinal chemistry 14, 2799-2812). All compounds were purchased from Sigma-Aldrich and were used as described before (Kanellopoulos (2012), J Neurosci. 32(38):13111-24; Zwarts (2011), PNAS 108, 17070-17075). In brief, the drugs were dissolved as per the manufacturer's instructions and used at the following concentrations: GABA at 50 μM, DABA 100 μM, Valproic acid (VPA) at 1 mM and Diazepam at 50 μM. Compounds in solution were mixed with Formula 4-24® Instant Drosophila Medium (blue food) in water. Approximately 50-60 adult flies were placed in plastic vials containing 500 μl of each solution on top of an agar matrix and allowed to feed ad libitum before behaviour analysis. Vehicle treatment consisted of solvent added to blue food alone.
Example 16. Drug screening to identify compounds that ameliorate social behavior deficits in flies with Cyfip haploinsufficiency. Control (w1118) or CYFIP (Cyfip^85.1/+) flies were treated, i.e. fed, with various compounds from the Prestwick Chemical Library® as described in Examples 8 and 15. All compounds were used at a concentration of 50 μM. The total number of social interactions was analyzed in a competition for food assay at various time-points (1, 2 or 5 days) of treatment with the compound or vehicle controls as described in Example 2.

[2] = tested on: Cyfip1+/− mice; test: three-chamber test (sociability and social novelty) in Cyfip1+/− mice; assay type: in vivo, mouse; conditions: for social preference deficit (sociability index, stranger 1 vs object): acute diazepam i.p. 0.2 mg/ml at 1% of bodyweight, 30 min prior to test
Experimental: Sociability and social novelty were evaluated using the three-chamber test previously described (Crawley (2007), Brain Pathology 17(4), 448-459). Briefly, the set-up consisted of a rectangular non-transparent Plexiglas box divided into three compartments, separated by two partitions (each compartment: 30×19×21 cm). These partitions contained a small passage in the middle (8×7 cm; that can be sealed with small guillotine doors), which allowed the mouse to transition between adjacent compartments. During the acclimation phase, mice were allowed to explore the empty central compartment for 5 min. At the start of the test, both sliding doors were closed and each of the outer compartments were equipped with a wired cage (10 cm diameter, 20 cm high), one containing an object (50 ml Falcon Tube or a glue stick) and the other containing a mouse (i.e. stranger 1). Holding cages were used to avoid inter-male fighting but allow visual and olfactory contact between mice. During the sociability phase, the guillotine doors were removed and mice could freely explore the entire set-up for 10 min. It is expected from healthy mice that more interest is shown towards another mouse compared to an object. After 10 min, mice were placed into an empty housing cage, and the holding cage containing the object was replaced by a holding cage containing a novel mouse (i.e. stranger 2). During the next phase (social memory), the stranger 1 mouse has become familiar and it is expected that healthy mice show more interest towards the stranger 2 mouse compared to the stranger 1 mouse. The guillotine doors were removed and mice were allowed to explore the set-up for another 10 min. The location of the stranger 1 and stranger 2 mice was counterbalanced between animals and the box was cleaned with 70% EtOH solution after each animal. All stranger mice used were of the same sex as the tested mouse and had never been in contact with the test mice. Mice were recorded with a camera and were tracked with Ethovision software (Noldus, Wageningen, The Netherlands). Time spent in close proximity (<2 cm) to the holding cages was recorded. Preference index was calculated as: Time stranger 1/(Time stranger 1+Time object) and Timestranger 2/(Timestranger 1+Timestranger 2) for sociability and social memory/social novelty, respectively.
Diazepam, a GABA-A positive modulator, was purchased from Roche (Basel, Switzerland) (diazepam already dissolved in saline at a concentration of 5 mg/ml). Diazepam was further diluted in saline and adjusted to the dose of 0.2 mg/ml. Mice were first tested in the three-chamber test in control conditions. 72 h afterwards, all mice were administered intraperitoneally with diazepam at 1% of bodyweight 30 min prior to re-testing. […]

[3] = tested on: WT mice; test: three-chamber test (sociability) in WT mice; assay type: in vivo, mouse; conditions: acute diazepam i.p. 0.2 mg/ml at 1% of bodyweight, 30 min prior to test
Experimental: Sociability and social novelty were evaluated using the three-chamber test previously described (Crawley (2007), Brain Pathology 17(4), 448-459). Briefly, the set-up consisted of a rectangular non-transparent Plexiglas box divided into three compartments, separated by two partitions (each compartment: 30×19×21 cm). These partitions contained a small passage in the middle (8×7 cm; that can be sealed with small guillotine doors), which allowed the mouse to transition between adjacent compartments. During the acclimation phase, mice were allowed to explore the empty central compartment for 5 min. At the start of the test, both sliding doors were closed and each of the outer compartments were equipped with a wired cage (10 cm diameter, 20 cm high), one containing an object (50 ml Falcon Tube or a glue stick) and the other containing a mouse (i.e. stranger 1). Holding cages were used to avoid inter-male fighting but allow visual and olfactory contact between mice. […] Mice were recorded with a camera and were tracked with Ethovision software (Noldus, Wageningen, The Netherlands). Time spent in close proximity (<2 cm) to the holding cages was recorded. Preference index was calculated as: Time stranger 1/(Time stranger 1+Time object) and Timestranger 2/(Timestranger 1+Timestranger 2) for sociability and social memory/social novelty, respectively. […]

## CN1C(=O)CN=C(c2ccccc2)c2cc(Cl)ccc21 [diazepam]
[1]
  social deficits (social events): restored the social deficits
[2]; acute diazepam i.p.
  increase in social preference after treatment (within-subject, control vs diazepam-treated): approximately 50%
[2]
  social preference deficit (sociability index, stranger 1 vs object): rescued the social preference deficit
[2]; listed as Diazepam
  social preference deficit (sociability index, stranger 1 vs object): restores deficits in social behavior
[2]; acute diazepam i.p., genotype difference not statistically significant
  preference for the novel mouse (social novelty index): slightly increase
[3]
  social preference (sociability index): slight decrease in social preference

— US20240139205A1, “MODULATORS OF ARALAR FOR TREATING NEUROLOGICAL DISORDERS” (Universite de Lausanne, priority 2020, published 2024)
